Test results taken from US20200239530A1, “COMPOUNDS AND METHODS OF MODULATING PROTEIN DEGRADATION” (Vividion Therapeutics, Inc., priority 2017, published 2020).
Read-outs that look alike come from different tables or passages of the source.

Experiments:
Assay in all cases: Competitive cysteine profiling, probe competition (Table 2B)
Assay type in all cases: binding
[1] = target: T1, Q9C0C7 (Homo sapiens, UniProt Q9C0C7)
T1 construct: Cells were resuspended in cold PBS on ice and sonicated with a probe sonicator to achieve lysis; endogenous in cells
T1 sequence (Q9C0C7 1-1298): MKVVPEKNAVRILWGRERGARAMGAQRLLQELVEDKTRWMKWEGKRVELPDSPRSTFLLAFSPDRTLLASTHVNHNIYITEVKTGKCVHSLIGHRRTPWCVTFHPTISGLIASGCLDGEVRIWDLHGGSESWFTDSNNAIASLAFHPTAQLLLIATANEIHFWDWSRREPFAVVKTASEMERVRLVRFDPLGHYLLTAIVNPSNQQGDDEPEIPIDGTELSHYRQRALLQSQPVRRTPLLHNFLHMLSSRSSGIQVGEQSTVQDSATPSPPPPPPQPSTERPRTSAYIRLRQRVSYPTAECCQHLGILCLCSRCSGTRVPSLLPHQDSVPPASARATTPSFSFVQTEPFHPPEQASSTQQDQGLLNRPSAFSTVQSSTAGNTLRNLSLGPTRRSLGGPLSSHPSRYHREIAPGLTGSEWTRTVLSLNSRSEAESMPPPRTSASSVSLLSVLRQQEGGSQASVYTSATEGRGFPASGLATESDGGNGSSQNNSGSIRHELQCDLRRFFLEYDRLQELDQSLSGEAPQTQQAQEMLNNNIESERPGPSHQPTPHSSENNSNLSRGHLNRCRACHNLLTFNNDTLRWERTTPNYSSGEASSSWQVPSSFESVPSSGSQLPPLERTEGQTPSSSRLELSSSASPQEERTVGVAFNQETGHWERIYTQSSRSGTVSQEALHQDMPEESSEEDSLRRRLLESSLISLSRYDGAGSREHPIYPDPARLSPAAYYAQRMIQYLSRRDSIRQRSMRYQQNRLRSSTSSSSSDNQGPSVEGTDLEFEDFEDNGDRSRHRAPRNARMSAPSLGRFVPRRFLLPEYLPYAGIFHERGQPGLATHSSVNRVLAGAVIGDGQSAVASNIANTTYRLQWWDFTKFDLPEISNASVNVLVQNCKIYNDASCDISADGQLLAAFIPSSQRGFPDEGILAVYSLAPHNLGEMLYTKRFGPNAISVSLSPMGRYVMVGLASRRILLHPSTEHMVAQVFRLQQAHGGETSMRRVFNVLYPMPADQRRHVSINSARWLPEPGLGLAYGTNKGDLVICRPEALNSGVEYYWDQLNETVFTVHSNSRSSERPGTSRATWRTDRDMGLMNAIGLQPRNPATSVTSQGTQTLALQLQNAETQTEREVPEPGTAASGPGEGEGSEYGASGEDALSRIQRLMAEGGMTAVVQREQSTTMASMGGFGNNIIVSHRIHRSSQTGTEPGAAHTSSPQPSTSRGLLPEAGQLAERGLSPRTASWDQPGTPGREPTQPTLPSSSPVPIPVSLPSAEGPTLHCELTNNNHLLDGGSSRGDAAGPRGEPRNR
Source text: (§1) The following 96-well sample prep protocol was used for sample preparation.

[2] = target: T2, Q8WXK3 (Homo sapiens, UniProt Q8WXK3)
T2 construct: 200 μL of lysate containing 5 mg/ml proteome was treated with 2 μL of 100× compound stock; endogenous in cells
T2 sequence (Q8WXK3 whole entry): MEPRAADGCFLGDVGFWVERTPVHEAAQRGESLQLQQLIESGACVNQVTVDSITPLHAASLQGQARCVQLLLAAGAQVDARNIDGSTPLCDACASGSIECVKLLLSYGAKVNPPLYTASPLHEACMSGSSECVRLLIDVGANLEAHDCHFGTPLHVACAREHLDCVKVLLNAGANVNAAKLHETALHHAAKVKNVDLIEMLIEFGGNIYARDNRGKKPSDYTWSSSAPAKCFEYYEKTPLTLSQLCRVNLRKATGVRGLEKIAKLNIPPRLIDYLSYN
Source text: as §1

[3] = target: T3, Q9P2G1 (Homo sapiens, UniProt Q9P2G1)
T3 construct: Cells were resuspended in cold PBS on ice and sonicated with a probe sonicator to achieve lysis; endogenous in cells
T3 sequence (Q9P2G1 1-1089): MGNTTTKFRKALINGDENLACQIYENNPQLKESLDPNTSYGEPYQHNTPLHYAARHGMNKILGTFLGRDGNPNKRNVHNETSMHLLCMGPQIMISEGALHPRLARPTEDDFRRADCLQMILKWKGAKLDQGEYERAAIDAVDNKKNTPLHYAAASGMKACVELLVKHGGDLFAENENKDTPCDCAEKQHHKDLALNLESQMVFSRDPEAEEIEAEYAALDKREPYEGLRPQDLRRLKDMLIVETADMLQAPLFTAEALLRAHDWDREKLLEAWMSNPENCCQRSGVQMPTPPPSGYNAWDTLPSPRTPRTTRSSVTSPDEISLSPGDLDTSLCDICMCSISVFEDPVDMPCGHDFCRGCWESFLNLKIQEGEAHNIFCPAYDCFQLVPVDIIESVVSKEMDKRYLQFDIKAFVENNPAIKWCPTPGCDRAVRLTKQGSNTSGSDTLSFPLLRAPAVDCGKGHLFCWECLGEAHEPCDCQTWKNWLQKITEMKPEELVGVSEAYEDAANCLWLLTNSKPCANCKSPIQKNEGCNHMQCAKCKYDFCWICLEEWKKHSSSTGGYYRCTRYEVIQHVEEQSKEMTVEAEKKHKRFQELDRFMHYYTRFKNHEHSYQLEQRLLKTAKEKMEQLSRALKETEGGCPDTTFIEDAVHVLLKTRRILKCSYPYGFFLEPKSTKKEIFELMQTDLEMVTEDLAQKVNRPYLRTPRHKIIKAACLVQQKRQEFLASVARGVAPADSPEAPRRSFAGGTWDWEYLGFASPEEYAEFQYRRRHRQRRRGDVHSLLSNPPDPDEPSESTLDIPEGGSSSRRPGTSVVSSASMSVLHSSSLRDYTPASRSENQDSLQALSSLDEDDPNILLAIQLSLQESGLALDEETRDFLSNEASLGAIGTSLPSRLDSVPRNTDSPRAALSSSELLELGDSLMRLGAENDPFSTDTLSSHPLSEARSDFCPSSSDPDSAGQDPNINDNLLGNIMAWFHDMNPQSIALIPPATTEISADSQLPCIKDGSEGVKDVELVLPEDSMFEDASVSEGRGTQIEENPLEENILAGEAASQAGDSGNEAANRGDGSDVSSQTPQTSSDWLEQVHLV
Source text: as §1

[4] = read-out: KB05_100 uM_percent_inhibition

Question: What does the source list for `COc1ccc2c(c1)CCCN2C(=O)CCl` [KB02]?
Answer: KB02_100 uM_percent_inhibition ([1]; 100 uM): 49%; inhibition at 100 µM ([1]; read-out: KB02_100 uM_percent_inhibition): 48%; inhibition at 500 µM ([2]; 500 uM, read-out: KB02_500 uM_percent_inhibition): 44%

Question: What does the source list for `C=CC(=O)N(c1ccccc1)c1ccc(Br)cc1` [KB05]?
Answer: KB05_100 uM_percent_inhibition ([1]; 100 uM): 25%; inhibition at 100 µM [1, 4]: 23%; KB05_100 uM_percent_inhibition ([3]; 100 uM): 22%; inhibition at 100 µM [3, 4]: 41%

Question: `O=C(CCl)Nc1cc(C(F)(F)F)cc(C(F)(F)F)c1` [KBO3] was tested. Which “KB03_100 uM_percent_inhibition” value ([3]; 100 uM) did it give?
Answer: 29%

Question: And the “KB03_100 uM_percent_inhibition” value ([2]; 100 uM)?
Answer: 7%
